Measurements published in patent US20030104451A1, “Arrays using polymerized monomolecular films and methods for using and manufacturing the same” (priority 2001, published 2003).

Target: T1, streptavidin (Streptomyces avidinii, UniProt P22629)
T1 construct: purchased Sigma-Aldrich
Assay: Competitive inhibition of streptavidin capture on biotin-PDTF by free biotin
Type: binding
Details: streptavidin preincubated 30 min with free biotin; chip 0.25 pmol/monolayer biotin (1% biotin-PDTF)
Description: The remaining free protein (in this case streptavidin) concentration in solution can then be estimated with the MILD-MALDI-MS approach.
The surfaces were allowed to air dry.

SMILES: O=C(O)CCCC[C@@H]1SC[C@@H]2NC(=O)N[C@@H]21 [biotin]
- free biotin excess over streptavidin at which competition is clearly seen: 100 -fold
